Row | melting point | SMILES
1 | 106 °C | COc1ccc(C#Cc2ccc(C=O)cc2)cc1
2 | 64 to 65 °C | CCCCCCCCCCCCc1c[nH]c(C=O)c1
3 | 299 to 300 °C | CC(=O)Nc1ccc(-c2ccc3nc(-c4cccnc4N)n(-c4ccc(CNC(=O)c5ccccc5)cc4)c3n2)cc1
4 | 244 to 246 °C | Cc1cccc(-c2c3c(cc4ccc5c(c24)OCO5)C(=O)NC3)c1
5 | 200 to 202 °C | CCc1ccnc2cc(OC)c(O)cc12
6 | 128 to 135 °C | CCCC(=O)Nc1nc(CN2CCN(C(c3ccccc3)c3ccccc3)CC2)cs1
7 | 69 to 72 °C | O=C1c2ccccc2C(=O)N1CCOCCl
8 | 223 to 225 °C | O=Nc1c(-c2ccccc2)nc2ncccn12
9 | 110 to 113 °C | Cc1cccc(-c2nc(NC(=O)Cc3ccccc3)sc2-c2ccnc(NC(=O)Cc3ccccc3)n2)c1
10 | 116 to 118 °C | Cn1nnnc1CC(O)(c1ccc(F)cc1)c1ccc(F)cc1
11 | 157 to 160 °C | CCN(CC)C(=O)n1cc(F)c(=O)[nH]c1=O
12 | 105 to 106 °C | COc1ccc(C2OCc3ccccc3O2)cc1O (stereo not given)
13 | 144 to 146 °C | COc1ccc([C@@H]2CN(C)CC[C@@H]2NC(=S)c2ccc(C)cc2)cc1OC (relative stereo)
14 | 196 to 197 °C | CCC(C)NC(=O)Nc1cc(-c2c(-c3ccc(F)c(C)c3)nc3cccnn23)ccn1 (stereo not given)
15 | 148 °C | COc1ccc(-c2ccc3ccc(NC(=O)c4ccc(C(F)(F)F)cc4)nc3n2)cc1
16 | 233 to 234 °C | Cc1cc2c(c3ccc(=O)[nH]c13)OC(CNC(=O)CCNC(=O)OCc1ccccc1)C2 (stereo not given)
17 | 160 to 162 °C | COc1nc(-c2ccccc2)c2ccsc2n1
18 | 199 to 200 °C | O=C(NCCCC[C@H](NC(=O)OCc1ccccc1)C(=O)Nc1ccc(-c2ccc(C(=O)O)c(=O)[nH]2)cc1)OCc1ccccc1
19 | 176 to 177 °C | Cn1c(S(=O)(=O)CCO)nnc1S(=O)(=O)CCO
20 | 210 to 211 °C | CSc1cc(C(C)(C)C)c(O)c(-c2nc3ccc(S(=O)(=O)C(F)(F)F)cc3[nH]2)c1C
21 | 168 to 170 °C | O=C(NCc1ccn(-c2cc3nc(C(=O)O)c(=O)[nH]c3cc2C(F)(F)F)c1)Nc1ccc(F)cc1
22 | 107 °C | Cc1cc(-c2nn(C3CCCC3)c3c(F)cccc23)ccc1O
23 | 200 to 202 °C | CC(C)n1nc(-c2cnc(Nc3ccccc3)nc2-c2ccccc2)ccc1=O
24 | 200 to 203 °C | O=C1OC(c2ccccc2)=NC1=NNc1ccccc1
25 | 153 °C | COc1cc2cc(N)cnc2cc1F
26 | 207 to 209 °C | CCCNC(=O)CN1C(=O)C2(COc3cc4c(cc32)CCO4)c2ccccc21 (stereo not given)
27 | 99 to 101 °C | C[C@H](O)Cn1ccc2cc(F)c(Cl)cc21
28 | 194 to 195 °C | O=C(N[C@H](Cc1ccc(C(F)(F)F)cc1)[C@@H](O)c1cccc2ccccc12)c1ccc(F)cc1 (racemic)
29 | 140 to 141 °C | CCCCCc1ccc(C(=O)Nc2ccc(-n3nc(C(F)(F)F)cc3C(F)(F)F)cc2)c(=O)o1
30 | 192 to 195 °C | O=C(O)CCCc1cc2nc(Cl)ccc2n1S(=O)(=O)c1c(F)cccc1F

The next lines start with the compound.

Row | SMILES | melting point
31 | Cc1c(NC(=O)c2ccc(OCCC(C)C)cc2F)ccc2cc(CN3CCCC3)cnc12 | 131 °C
32 | O=c1cc(-n2ccnc2)c2cc(C(c3ccc(Cl)cc3)n3ccnc3)ccc2[nH]1 (stereo not given) | 242 °C
33 | CC(=O)Nc1ccc(-c2ccccc2)cc1[N+](=O)[O-] | 128 to 131 °C
34 | COc1cc2oc(=O)c(CCOS(C)(=O)=O)c(C)c2c(OC)c1OC | 114 to 115 °C
35 | NNC(=O)c1c(OCC(F)(F)F)cccc1OCC(F)(F)F | 153 to 154 °C
36 | CCCCCCOc1ccccc1C(=NCCC(C)(C)C)NC#N | 89 to 90 °C
37 | CC(C)(C)C(=O)c1c[nH]c2ncc(-c3cccc(NS(=O)(=O)c4ccccc4)c3)nc12 | 217 to 219 °C
38 | O=[N+]([O-])c1cccc2c1CN(Cc1ccccc1)C2 | 77.5 to 78 °C
39 | Cc1cc(C(=O)NS(=O)(=O)Cc2ccccc2C(F)(F)F)nc(Cl)n1 | 198 to 199 °C
40 | CN1C2=NC(C)(C)N(C)C(=O)N2c2ccccc21 | 79 to 82 °C
41 | O=C1CCC(N2Cc3c(CNC(=O)c4cccc(Cl)c4)cccc3C2=O)C(=O)N1 (stereo not given) | 266 to 268 °C
42 | Cc1cc(Oc2nn(C)c(C(F)(F)F)c2Cl)ccc1[N+](=O)[O-] | 72 to 73.5 °C
43 | CN(C(=O)OC(C)(C)C)c1cc(Oc2ccc(Oc3ccccc3)cc2)ccc1N | 105 to 106 °C
44 | O=c1ccc(-c2ccc(F)cc2)nn1CCF | 145 °C
45 | CCOC(=O)C(=CNC(C)(C)C)C(=O)c1cc(F)c(Cl)cc1Cl | 87 °C
46 | CCOC(=O)CCCCCCCCCCSc1nc(-c2ccccc2)c(-c2ccccc2)[nH]1 | 57 to 59 °C
47 | C[C@@H]1CN(C(=O)[C@@](C)(O)C(F)(F)F)[C@@H](C)CN1C(=O)c1ccc(F)cc1 | 177 to 178 °C
48 | O=C1N(Cc2ccccc2OC(F)(F)F)c2ccccc2C12COc1cc3c(cc12)OCO3 (stereo not given) | 88 to 91 °C
49 | COC(=O)C(=O)Cc1ccc(SC)cc1 | 112 to 113 °C
50 | O=C1NCCc2[nH]c3c(Br)cccc3c21 | 268 to 270 °C
51 | CSC(=C[N+](=O)[O-])NCCCCc1ccccn1 | 78 °C
52 | O=C(O)c1ccc(N2CCCCC2)c(NC(=O)C(CS)Cc2ccccc2)c1 (stereo not given) | 142 to 146 °C
53 | CN1CCN(c2ccc3c(c2)NC(=O)C(C)(c2ccc([N+](=O)[O-])cc2)C3=O)CC1 (stereo not given) | 150 to 151 °C
54 | CN(C)C(=O)COc1ccc2ccc(N)nc2n1 | 182 °C

Row | SMILES | melting point
55 | c1cc2ccsc2cn1 | < 50 °C
56 | CCCCCCCCCCCCCCCC(=O)NCCCCCCCCCCCC(=O)O | 119 to 121 °C
57 | CC(=O)NN1CCC(c2ccc(-c3cccc(N)n3)cc2)CC1 | 224 to 227 °C
58 | CC(C)=CCN1CCC(=C2c3ccccc3CCn3ccnc32)CC1 | 127 °C
59 | CC(C)Cc1nn(C)c(=O)c2cc(Cc3cccnc3)sc12 | 118 to 119 °C
60 | Cc1cnc2c(c1)C(=O)c1nccc(Br)c1C2=O | > 200 °C
61 | O=C(Cl)c1ccc(Cl)c(OCCn2cnnn2)c1Cl | 69 to 73 °C
62 | C[C@H]1CCCC(C)(C)[C@@H]1[C@H](O)c1ccc(C(F)(F)F)c(F)c1 | 71 to 73 °C
63 | CCCCOc1cc(/C=C(\OCC)C(=O)O)ccc1OCCc1ccc(OS(=O)(=O)CCCC)c(F)c1 | 99 °C
64 | O=S(=O)(c1nc(-c2ccc(F)cc2)c(-c2cccs2)[nH]1)C(F)(F)C(F)F | 192 to 193 °C
65 | Cc1ccc2c(c1)c(=O)[nH]c1c2c2ccccc2n1C | > 310 °C
66 | CCc1cnc2c(NC(=O)c3c(Cl)cccc3Cl)cccc2c1CCl | 193 to 194 °C
67 | CCc1cccc(CC)c1NC(=O)CCSc1cc(C(C)(C)C)c(O)c(C(C)(C)C)c1 | 150 to 152 °C
68 | CCN(C)C(=O)c1nn(-c2ccc(Cl)cc2)c(=O)c2c(N)scc12 | 148 to 150 °C
69 | COc1ccc2c(c1)sc1nc(C)c(CO)n12 | 204 °C
70 | COc1ccc(C(=O)C2CCN(C(C)=O)CC2)cc1 | 102 to 105 °C
71 | CCC(=O)N1N=C(c2ccc(N)cc2)c2cc(Cl)ccc2CC1C (stereo not given) | 118 to 120 °C
72 | C=Cc1ccc(Nc2nc(Cl)nc(Cl)c2Cl)cc1 | 112 to 114 °C
73 | CC12CCC3C(CCC4=CC(=O)CCC43C=O)C1CCC2=O (stereo not given) | 126 to 129 °C
74 | COc1ccc(OC)c(Nc2ncc(C(=O)O)c(=O)[nH]2)c1 | 260 to 262 °C
75 | CCc1cc(C(=O)c2ccccc2Cl)c(-n2c(CC)nnc2CNC(=O)c2ccc(Cl)c(Cl)c2)s1 | 136 to 138 °C
76 | CCCC(=O)N(CCC)C1Cc2ccc(-c3ccc(=O)[nH]n3)cc2C1 (single isomer, unassigned; (+)) | 159 to 160 °C
77 | COCC[C@H]1CN(c2cc(C)cc3c2C=Nc2ccccc2N3)CCN1C | 100 to 108 °C
78 | CC(C)c1cc2ncccc2cc1Oc1cnc(N)nc1N | 207 to 208 °C

Row | SMILES | melting point
79 | Cc1cc(C)cc(-c2[nH]c3ccc(-c4nccs4)cc3c2CCN)c1 | 98.5 to 100 °C
80 | CC#CCOc1ccc(S(=O)(=O)C2(C(=O)O)CCN(Cc3ccc(F)cc3)CC2)cc1 | 106 °C
81 | O=C(c1ccc(Cl)cc1)c1c(N2C(=O)c3ccccc3C2=O)sc(Br)c1CN1CCN(c2ccccc2)CC1 | 186 to 193 °C
82 | CCNC(=O)c1ccccc1Nc1nc(Nc2ccc3c(c2)C(C)(C)CNC(=O)C3)ncc1Cl | 261 to 262 °C
83 | CNC(=O)c1cccc(NC(=O)C2(c3ccccc3)CCCC2)c1 | 147 °C
84 | COC(=O)C1=Cc2cc(-c3ccc(N4CCOCC4)cc3)ccc2N(C=O)CC1 | 178 to 181 °C
85 | CCOC(=O)C1=C(C)NC(C=O)=C(C(=O)OCC)C1c1cccc(O)c1 (stereo not given) | 142 °C
86 | CCC1Oc2cc(C(=O)OC)ccc2NC1=O (stereo not given) | 132 to 134 °C
87 | Nc1ccc(-c2n[nH]c(-c3ccncc3)n2)cc1 | 251 to 252 °C
88 | CC(C)NC(=O)NC[C@H](C)NC(=O)OC(C)(C)C | 101 °C
89 | OC[C@@H](O)[C@@H](c1cccc(Br)c1)N1CCc2cccc(OCc3ccccc3)c21 | 61 to 66 °C
90 | Nc1cc(Cl)cc(Nc2ncnc3[nH]cc(C(=O)c4ccccc4)c23)c1 | > 300 °C
91 | CN(C)CC(=O)NCc1nc(C(=O)N(C)C)nn1-c1ccc(Cl)cc1C(=O)c1ccccc1Cl | 122 to 124 °C
92 | O=C(NCc1ccccc1)C1CC=CC(O)C1 (stereo not given) | 127 to 128 °C
93 | CCCCCc1ccccc1C=CC=C1SC(=S)N(CC(=O)O)C1=O | 203 to 207 °C
94 | Cc1oc(-c2ccccc2)nc1COc1ccc(C=C2SC(=O)NC2=O)cn1 | 225 to 226 °C
95 | O=C(c1ccccc1)C(F)c1ccccc1 (stereo not given) | 50 to 51 °C
96 | NC(=NO)c1cc2cc(F)c(F)cc2o1 | 184 °C
97 | C=CCNC(=O)c1cnc2c(OC)cccc2c1Cl | 114 to 116 °C
98 | COc1ccc(C(=O)c2c(N)sc3c2CCN(C(=O)c2ccccc2)C3)cc1OC | 143 to 145 °C
99 | O=C(Cc1cccc([N+](=O)[O-])c1)c1c(O)c2cccnc2n(-c2ccccc2)c1=O | 157 to 161 °C
100 | COC(=O)C1(O/N=C(\C(=O)OC(c2ccccc2)c2ccccc2)c2csc(NC(c3ccccc3)(c3ccccc3)c3ccccc3)n2)CCCCC1 | 180 to 182 °C
